{"source": "paper PMC7961996", "about": "“Small Immunomodulatory Molecules as Potential Therapeutics in Experimental Murine Models of Acute Lung Injury (ALI)/Acute Respiratory Distress Syndrome (ARDS)” (International Journal of Molecular Sciences, 2021)", "assay_type_in_all_cases": "in vivo, C57BL6/J mice", "key": {"LPS-induced ALI mice": {"system": "LPS-induced ALI mice", "assay": "LPS-induced ALI murine model", "experimental": "(§1) For the mouse efficacy studies, both AVR-25 and AVR-48 were reconstituted in 0.9% sterile normal saline to give a final concentration of 10 mg/kg; 125 µL was administered intraperitoneally (IP) for hyperoxia- and LPS- induced lung injury, and IV via the lateral tail vein for CLP-induced lung injury. Imipenem (Primaxin®) was formulated in sterile 0.9% saline solution and administered subcutaneously (SC) at a dose of 5 mg/kg to mice in a 0.2 mL volume near the dorsal scapular region for CLP-induced lung injury study. LPS was dissolved in sterile 0.9% saline solution and 100 µL was administered intratracheally for the ALI study.\n(§2) Three models of ALI were used in the current study: hyperoxia-, LPS-, and CLP-induced lung injury: LPS-induced ALI was induced by administering a one-time intratracheal instillation of LPS (100 µg in a volume of 100 µL). Animals were sacrificed after 24 h following LPS administration while two doses of AVR-25 and AVR-48 were administered (10 mg/kg, IP) at 4 h and 12 h following LPS dosing. Hyperoxia-induced ALI was initiated by keeping the mice in cages in airtight polypropylene chamber exposed to hyperoxia (100% oxygen) for 48 h, following a standard protocol. Two doses of AVR-25 and AVR-48 were administered (10 mg/kg, IP) at 4 h and 12 h following hyperoxia exposure, and mice were sacrificed after 48 h.\n(§3) At the end of the experimental time points for all the above groups, the mice were euthanized with an overdose of a cocktail of xylazine (100 mg/kg)/ketamine (10 mg/kg, IP) and BALF and lung tissues were harvested for further analysis. Male mice were used for all the ALI experiments.\n(§4) BALF was obtained from the anesthetized mice by cannulating the upper part of the trachea with a blunt 22-gauge needle and then by lavaging three times with 1.0 mL of cold PBS (pH 7.4). The fluid recovery rate was about 90%. Lavaged samples were kept on ice, and the BALF was centrifuged at 4 °C. Total cell counts in BALF were determined using the TC20 automated cell counter (Bio-Rad Laboratories, Inc., Hercules, CA, USA). The differential cell counts were performed on cytospin preparations after staining with the Hema 3 differential Staining kit (Fisher Scientific, Kalamazoo, MI, USA). Total protein concentration in the BALF was measured using the Pierce^TM BCA assay kit (Fisher Scientific Co, Houston, TX, USA), as previously described.\n(§5) Lung endothelium permeability was determined by measuring the accumulation of Evans blue in the lungs, as previously described. In brief, Evans blue dye (EBD) solution (Sigma-Aldrich, Inc., St. Louis, MO, USA, 5 mg/mL) was injected into the tail vein at a concentration of 50 mg/kg before 30 min of the experimental time point. At the experimental time points, lungs were excised and weighed. EBD was extracted in 2 mL formamide kept in a water bath at 60 °C for 3 h, and the samples were centrifuged at 500 g for 10 min. The absorption of light at 595 nm was measured spectrophotometrically (Microplate reader, Bio-Rad Laboratories, Hercules, CA, USA) with the supernatants.\n(§6) Interleukin (IL)-6, IL-1β, and IL-10 were quantified on BALF while E-selectin was quantified in lung homogenate using commercially available DuoSet® ELISA kits (R&D Systems, Minneapolis, MN, USA) according to the manufacturer’s instructions, as previously described. Briefly, Nalgene Nunc Maxisorp™ plates were coated overnight with antibodies to IL-6 (2 µg/mL), IL-1β (2 µg/mL) IL-10 (2 µg/mL), or E-selectin (2 µg/mL) and the following morning plates were washed and blocked for 2 h. Samples were added to the wells at various dilutions and then incubated with detection antibody for 2 h. Plates were subsequently washed, and streptavidin-HRP conjugate antibody was added to each well for 20 min. […]"}, "CLP-induced sepsis mice": {"system": "CLP-induced sepsis mice", "assay": "CLP-induced sepsis survival study", "conditions": "AVR-48 10 mg/kg IV at 16 h and 24 h after CLP, imipenem 5 mg/kg SC at 30 min; 10 days; CLP alone 100% mortality within 72 h", "experimental": "For CLP-induced lung injury, CLP was performed as previously described by us. As antibiotics are the standard of care in sepsis patients, one dose of imipenem was given SC at 5 mg/kg 30 min after the procedure, followed by two doses of AVR-48 (10 mg/kg, IV) at 16 h and 24 h following the surgery, and sacrificed after 72 h. The sham mice (controls) had the abdominal cavity opened, the cecum was not perforated, and the peritoneum was stitched back.\nFor the survival study of CLP-induced ALI, mice were injected with 2 doses of AVR-48 (IV) followed by 1 dose of imipenem (SC) as described in the CLP methodology, and allowed to survive for 10 days. Sterility was maintained throughout the procedure by operating the animals under a laminar hood. Following the procedure, the animals were returned back to the animal room for subsequent monitoring and follow up. The body temperature was recorded every 24h and feeding and social behavior was also observed. They were fed with semisolid food for 48h before resuming their regular chow diet. All mice were sacrificed after 10 days. (N=3 for sham and 5 for the rest of the groups). A CLP + imipenem group was not done in this study, as we have published this group […]\nimipenem, better than CLP + imipenem alone. Histopathology of the vital organs was performed and scored as previously published (37, 38) and noted in the methods section of this paper."}, "[1]": {"system": "hyperoxia-induced ALI mice", "assay": "Hyperoxia-induced ALI murine model", "experimental": "as §1, §2, §3, §4, §5, §6"}, "[2]": {"conditions": "10 mg/kg IP at 4 h and 12 h after LPS, 24 h, vs untreated ALI mice"}, "[3]": {"conditions": "10 mg/kg IP x2, ELISA, vs non-treated ALI mice"}, "[4]": {"conditions": "10 mg/kg IP at 4 h and 12 h of hyperoxia (100% oxygen), 48 h"}}, "data": [{"smiles": "CC(=O)N[C@H]1[C@H](Oc2ccc([N+](=O)[O-])cc2)O[C@H](CO)[C@@H](O)[C@@H]1O", "note": "[AVR-48, N-((2S,3R,4R,5S,6R)-4,5-dihydroxy-6-(hydroxymethyl)-2-(4-nitrophenoxy)tetrahydro-2H-pyran-3-yl) acetamide]", "values": [{"measurement": "pro-inflammatory cytokines IL-1β and IL-6 levels in BALF and lung tissues", "setting": "LPS-induced ALI mice; 10 mg/kg IP at 4 h and 12 h after LPS, 24 h, ELISA, Western blot", "result": "decreased"}, {"measurement": "neutrophil cell counts in BALF", "setting": "LPS-induced ALI mice; [2]", "result": "decreased counts"}, {"measurement": "total inflammatory cell counts in BALF", "setting": "LPS-induced ALI mice; [2]", "result": "decreased counts"}, {"measurement": "Evans Blue dye leak concentration in the lungs", "setting": "LPS-induced ALI mice; 10 mg/kg IP x2", "result": "diminished levels"}, {"measurement": "expression of lung adhesion molecules ICAM-1, VCAM-1, and E-selectin in whole lung tissue", "setting": "LPS-induced ALI mice; 10 mg/kg IP x2", "result": "decreased expression"}, {"measurement": "total proteins in BALF (pulmonary edema)", "setting": "LPS-induced ALI mice; 10 mg/kg IP x2", "result": "diminished levels"}, {"measurement": "lung injury score (H&E)", "setting": "LPS-induced ALI mice; 10 mg/kg IP x2, 0-4 scoring, vs ALI mice without treatment", "result": "decreased lung injury scores"}, {"measurement": "IL-10 levels in BALF", "setting": "LPS-induced ALI mice; [3]", "result": "further increase"}, {"measurement": "expression of cleaved caspase-3 in lungs (lung cell death)", "setting": "LPS-induced ALI mice; 10 mg/kg IP x2, Western blot", "result": "reduced expression"}, {"measurement": "expression of endothelial AJ proteins VE-cadherin and β-catenin in whole lungs", "setting": "LPS-induced ALI mice; 10 mg/kg IP x2, Western blot", "result": "increased expression"}, {"measurement": "survival", "setting": "CLP-induced sepsis mice", "result": 80, "unit": "%"}, {"measurement": "neutrophils infiltration into the lung (BALF)", "setting": "[1]; [4]", "result": "diminished"}, {"measurement": "total immune cells infiltration into the lung (BALF)", "setting": "[1]; [4]", "result": "diminished"}, {"measurement": "Evans Blue dye leak concentration in the lungs", "setting": "[1]; 10 mg/kg IP x2", "result": "diminished levels"}, {"measurement": "expression of lung adhesion molecules ICAM-1, VCAM-1, and E-selectin in whole lung tissue", "setting": "[1]; 10 mg/kg IP x2", "result": "decreased expression"}, {"measurement": "total proteins in BALF (pulmonary edema)", "setting": "[1]; 10 mg/kg IP x2", "result": "diminished levels"}, {"measurement": "levels of pro-inflammatory cytokines (IL-1β, IL-6) in BALF and lung tissues", "setting": "[1]; 10 mg/kg IP x2, 48 h, vs untreated ALI mice", "result": "decreased levels"}, {"measurement": "lung injury (H&E, injury score)", "setting": "[1]; 10 mg/kg IP x2, 0-4 scoring", "result": "improved lung injury"}, {"measurement": "IL-10 levels in BALF", "setting": "[1]; [3]", "result": "further increase"}, {"measurement": "expression of cleaved caspase-3 in lungs (lung cell death)", "setting": "[1]; 10 mg/kg IP x2, Western blot", "result": "reduced expression"}, {"measurement": "expression of endothelial AJ proteins VE-cadherin and β-catenin in whole lungs", "setting": "[1]; 10 mg/kg IP x2, Western blot", "result": "increased expression"}, {"measurement": "expression of phosphorylated-Src in whole lungs", "setting": "[1]; 10 mg/kg IP x2, Western blot", "result": "decreased expression"}]}]}
